This is an account of results in patent US11512111B2, “Yeats inhibitors and methods of use thereof” (The University of Hong Kong, priority 2017, dated 2022).

One assay addresses T1, AF9 YEATS domain (Homo sapiens, UniProt P42568).
T1 construct: His-AF9 (1-138); His (N); made in house; host or cells: E. coli Rosetta
T1 sequence (P42568 1-138): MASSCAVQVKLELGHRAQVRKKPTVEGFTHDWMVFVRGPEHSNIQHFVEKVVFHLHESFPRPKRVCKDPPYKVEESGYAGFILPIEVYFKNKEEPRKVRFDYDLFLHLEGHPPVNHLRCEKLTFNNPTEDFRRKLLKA
Kind of assay: Photo-cross-linking-based competition assay (photoaffinity probe, click chemistry, in-gel fluorescence). In kind it is binding. The note with it: ratio of IC50 values. As for the experimental part:
Mobile phase used were water with 0.1% trifluoroacetic acid (buffer A) and 90% acetonitrile in water with 0.1% trifluoroacetic acid (buffer B). The purity (>95%) and identity of peptides were confirmed by LC-MS. The inhibitory activities of the inhibitors were determined by a photo-cross-linking-based competition assay. […] The reactions were incubated for 1 h at r.t . . . . The reactions were quenched by adding 5 volumes of ice-cold acetone and placed at −20° C. overnight to precipitate proteins. After protein precipitation, samples were centrifuged at 6000×g for 5 min at 4° C. The supernatant was discarded and the pellet was washed with ice-cooled methanol twice and air-dried for 10 min. […] Samples were then resolved by SDS-PAGE. The labeled proteins were visualized by scanning the gel on a Typhoon 9410 variable mode imager (excitation 532 nm, emission filter 580 nm). A photo-cross-linking based method was used in this study to estimate inhibitory activity (FIG. 28). This method requires the use of a photoaffinity probe. The probe (probe 1 (SEQ ID NO:48), see below) is derived from a crotonylated peptide, ligand of the protein, carrying a photo-cross-linker and a terminal alkyne as bioorthogonal. The YEATS domain is incubated and bound to the probe through Kcr-dependent recognition. Upon UV-irradiation, the photo-cross-linker is activated and rapidly cross-linked to the protein, converting the non-covalent protein-probe interaction into a covalent linkage. The probe-labeled protein is subsequently conjugated to an azide-functionalized fluorescence dye (for example, rhodamine-N3, Rho-N3) via Cu(I)-catalyzed azide-alkyne cycloaddition (CuAAC, or “click” chemistry). After SDS-PAGE, the protein can be visualized by in-gel fluorescence scanning. If photo-cross-linking of the YEATS domain with photoaffinity probe is performed in the presence of an inhibitor, which occupies the Kcr binding pocket of the YEATS domain and thus inhibits the protein-probe interaction, the percentage of the YEATS domain in the sample that is labeled by the probe will be reduced. The in-gel fluorescence intensity detected will also be decreased. By varying the concentration of inhibitor added in the sample and quantifying the resulting fluorescence intensities, a competition curve of the inhibitor toward the protein-probe interaction will be obtained, which can be used to estimate the IC50 value. Due to the covalent nature of photo-cross-linking, weak protein-protein interactions can be captured and eventually visualized. The protein concentration used in the assay can be as low as several nanograms per microliter, while the fluorescence signal can still be robustly detected and quantified.

Another assay has as its target T2, ENL YEATS domain (Homo sapiens, UniProt Q03111).
T2 construct: His-SUMO-ENL (1-138); His (N); SUMO (N); made in house; host or cells: E. coli Rosetta
T2 sequence (Q03111 1-138): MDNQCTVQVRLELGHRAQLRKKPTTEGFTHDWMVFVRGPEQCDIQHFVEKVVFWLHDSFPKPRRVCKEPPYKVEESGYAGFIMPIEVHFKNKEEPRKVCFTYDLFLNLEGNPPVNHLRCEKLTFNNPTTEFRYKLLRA
Kind of assay: Photo-cross-linking-based competition assay. Type of assay: binding. The note with it: competition with photoaffinity probe, in-gel fluorescence.

Assay [1] addresses T3, ENL (Homo sapiens, UniProt Q03111).
T3 construct: expressed in transfected cells; host or cells: MOLM-13 (FLAG-ENL) cells
T3 sequence (Q03111 1-559): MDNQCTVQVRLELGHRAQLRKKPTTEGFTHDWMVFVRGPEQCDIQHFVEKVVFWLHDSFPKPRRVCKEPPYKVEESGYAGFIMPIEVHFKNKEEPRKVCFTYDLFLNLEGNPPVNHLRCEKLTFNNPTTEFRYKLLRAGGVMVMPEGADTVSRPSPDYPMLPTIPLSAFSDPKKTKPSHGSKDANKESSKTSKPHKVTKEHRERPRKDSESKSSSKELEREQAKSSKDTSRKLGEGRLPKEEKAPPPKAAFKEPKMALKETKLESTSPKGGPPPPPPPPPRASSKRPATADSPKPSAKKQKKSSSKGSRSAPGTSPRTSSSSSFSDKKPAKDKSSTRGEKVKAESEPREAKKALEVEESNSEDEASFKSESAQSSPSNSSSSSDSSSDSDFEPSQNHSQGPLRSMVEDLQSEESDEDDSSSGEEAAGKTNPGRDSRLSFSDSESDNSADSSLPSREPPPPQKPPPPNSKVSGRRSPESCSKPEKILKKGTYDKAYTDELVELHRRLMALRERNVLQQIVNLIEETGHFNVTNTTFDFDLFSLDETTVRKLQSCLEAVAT
Kind of assay: Cellular thermal shift assay (CETSA) in MOLM-13 (FLAG-ENL) cells. Type of assay: cell-based. Conditions: MOLM13 (FLAG-ENL), 50 μM, 16 hours, anti-FLAG. How it is done:
We next applied the cellular thermal shift assay (CETSA) to examine if XL-13m was cell permeable and could target ENL in living cells. MOLM-13 (FLAG-ENL) were treated with XL-13m for […] and then heated at different temperature to denature and precipitate proteins. […] Soluble proteins were extracted by freeze-thaw cycle and subjected to western blotting analysis.
MOLM13 (FLAG-ENL) cells were incubated with or without 50 μM compound for 16 hours and then were collected for cellular thermal shift assay (CETSA) as previously reported. Anti-FLAG antibody was used to detect ENL proteins and γ-actin blotting served as negative control.

In the next assay the test system is MOLM13 (FLAG-ENL) cells. As to the kind of experiment: Cell proliferation, trypan blue exclusion count. The note with it: 50 μM, live cells counted every 2-3 days. Type of assay: cell-based. As for the experimental part:
(§1) MOLM13 (FLAG-ENL) cells were cultured with or without 50 μM compound XL-13m. Every 2-3 days, live cells were counted by trypan blue exclusion assay and re-plated. […] MOLM13 (FLAG-ENL) cells were cultured with or without 50 μM compound XL-13m for 24 hours, and the cells were treated with 50 μM for another 24 hours. […] Expression of c-Myc was quantified by qPCR.

Another assay concerns c-Myc expression. Kind of assay: JQ1-induced decrease of c-Myc expression, qPCR. Type of assay: cell-based. The note with it: MOLM13 (FLAG-ENL), 50 μM, 24 hours then another 24 hours.
Text: (§2) FIG. 49A is a graph showing the effect of treatment of MOLM13 cells with compound 39 (XL-13m) on the sensitivity of JQ1-induced decrease in c-Myc expression. Expression of c-Myc was quantified by qPCR. P value by student's t-test. Mean±s.d., three biological replicates. FIG. 49B is a graph showing the effect of treatment of MOLM13 cells with compound 39 (XL-13m) on enrichment of ENL on indicated genes. […] P value by student's t-test. Mean±s.d., triplicate PCR analysis.
as §1

In assay [2] the target is T3, ENL. Kind of assay: ChIP-qPCR of ENL enrichment on genes in MOLM13 (FLAG-ENL) cells. In kind it is cell-based. Conditions: 50 μM, 72 hours.
Text: as §2
MOLM13 (FLAG-ENL) cells were cultured with or without 50 μM compound XL-13m for 72 hours. […] MOLM13 (FLAG-ENL) cells were incubated with or without 50 μM compound for 16 hours and then were collected for cellular thermal shift assay (CETSA) as previously reported. Anti-FLAG antibody was used to detect ENL proteins and γ-actin blotting served as negative control.

Turning to `CC(=O)N[C@@H](C)C(=O)N[C@@H](CCCNC(=N)N)C(=O)N[C@@H](CCCCNC(=O)c1cnco1)C(N)=O` [Compound 39], the “activity on AF9 weaker than on ENL” value at AF9 YEATS domain was 4.5 fold. This molecule displayed an IC50 on ENL YEATS domain of 0.56 µM. Moreover, the “thermal shift: targeting of ENL protein in living cells” value at ENL [1] was “revealed the target of ENL protein”. In addition, the “effect on cell proliferation” value with MOLM13 (FLAG-ENL) cells is on record as “affected cell proliferation”. Besides, the “sensitivity of JQ1-induced decrease of c-Myc expression” value in the assay with c-Myc expression is recorded as “increased the sensitivity”. In addition, at ENL [2], the “enrichment of ENL on indicated genes” value is recorded as “decrease of the enrichment of ENL”.
